From article PMC10787790, “Isatin-tethered halogen-containing acylhydrazone derivatives as monoamine oxidase inhibitor with neuroprotective effect” (Scientific Reports, 2024)
Each block holds one compound with its values, some of them ahead of it.

Experiments:
[1] = tested on: MAO-A; conditions: halogenated pyrazoline, no reference given; cited from earlier work
[2] = molecular target: T1, MAO-A (Homo sapiens, UniProt P21397); test: MAO-A inhibition assay (continuous, kynuramine); conditions: for remaining activity at 10 µM: read-out: Residual activity at 10 µM (%) MAO-A
T1 sequence (P21397 1-527): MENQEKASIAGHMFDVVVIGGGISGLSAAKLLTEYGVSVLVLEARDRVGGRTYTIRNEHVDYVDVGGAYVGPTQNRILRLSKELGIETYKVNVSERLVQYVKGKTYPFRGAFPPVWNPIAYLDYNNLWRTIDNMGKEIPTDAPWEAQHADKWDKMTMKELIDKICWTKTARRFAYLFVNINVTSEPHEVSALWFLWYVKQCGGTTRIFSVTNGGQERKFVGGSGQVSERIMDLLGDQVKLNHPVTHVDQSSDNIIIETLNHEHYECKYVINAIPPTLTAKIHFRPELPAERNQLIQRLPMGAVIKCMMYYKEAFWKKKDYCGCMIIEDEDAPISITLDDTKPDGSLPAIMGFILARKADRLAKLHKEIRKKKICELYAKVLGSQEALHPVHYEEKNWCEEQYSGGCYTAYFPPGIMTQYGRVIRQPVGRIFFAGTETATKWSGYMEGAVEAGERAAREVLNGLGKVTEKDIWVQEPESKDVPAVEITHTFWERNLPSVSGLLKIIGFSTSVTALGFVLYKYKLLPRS

[3] = molecular target: T2, MAO-B (Homo sapiens, UniProt P27338); test: MAO-B inhibition assay (continuous, benzylamine); conditions: for SI (selectivity index): (IC50 of MAO-A)/(IC50 of MAO-B), MAO-B compared to MAO-A; for remaining activity at 10 µM: read-out: Residual activity at 10 µM (%) MAO-B
T2 sequence (P27338 1-520): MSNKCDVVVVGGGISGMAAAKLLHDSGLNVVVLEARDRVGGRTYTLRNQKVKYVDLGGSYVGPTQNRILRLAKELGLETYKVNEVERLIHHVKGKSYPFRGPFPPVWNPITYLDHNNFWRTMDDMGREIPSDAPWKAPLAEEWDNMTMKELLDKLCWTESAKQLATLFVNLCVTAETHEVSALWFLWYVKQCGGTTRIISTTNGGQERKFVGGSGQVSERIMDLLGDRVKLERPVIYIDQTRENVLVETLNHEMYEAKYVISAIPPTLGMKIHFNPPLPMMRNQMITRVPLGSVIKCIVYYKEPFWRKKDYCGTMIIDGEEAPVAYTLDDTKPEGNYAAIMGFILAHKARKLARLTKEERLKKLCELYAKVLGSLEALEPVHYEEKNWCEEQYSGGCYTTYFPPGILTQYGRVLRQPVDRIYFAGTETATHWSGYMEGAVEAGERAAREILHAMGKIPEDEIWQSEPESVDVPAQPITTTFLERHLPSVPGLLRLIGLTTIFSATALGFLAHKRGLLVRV

[4] = Parallel artificial membrane permeability assay (PAMPA), BBB; assay type: in vitro ADME; conditions: for Experimental Pe: pH 7.4; for Papp: pH 7.4, read-out: Experimental Pe
Method: The blood–brain barrier (BBB) permeation abilities of the four lead molecules were analyzed using the PAMPA method[44],[45]. The detailed procedure is explained in the Supplementary Data.
Using a microtiter plate with 96 wells and a Millipore filter plate with 96 wells (ipvh, 125 μm thick filter, 0.45 μm pore), which was then saturated with 0.1 mL of n-dodecane, a "sandwich" structure was created in PAMPA. Stock solutions of drug samples in DMSO were created at a 10 mM concentration. The stock solution was diluted in buffer at pH 7.4 before being added to a 96-well filter plate in order to achieve a final sample concentration (0.01, 0.1, and 1 mM) and keep the DMSO concentration at 1% (v/v). The final dilutions were divided into 270 μL for the donor wells and 200 μL of pH 7.4 buffer for the acceptor well. The donor plate was placed on the top of the acceptor filter plate to form a sandwich (comprising of a synthetic lipid membrane in the center, an aqueous receiver on […], and an aqueous donor carrying an analyte on the bottom.). The test substance diffuses from the donor well across the lipid membrane and into the acceptor well. The sandwich is said to have been intact when the penetration occurred. The drug concentration in the reference, donor, and receiver wells was measured using UV spectroscopy. The rate of penetration is calculated using the following expression.
Log Pe = -ln [1-CA /Equilibrium]/A× (1/VD + 1/VA) × t

[5] = tested on: SH-SY5Y cells; test: MTT cytotoxicity assay; assay type: cell-based, human; conditions: 24 h
[6] = tested on: TNF-α; test: TNF-α expression in LPS-induced SH-SY5Y cells; assay type: cell-based, human
[7] = tested on: IL-6; test: IL-6 expression in LPS-induced SH-SY5Y cells; assay type: cell-based, human
[8] = tested on: ROS; test: ROS assay (DCF) in LPS-treated SH-SY5Y cells; assay type: cell-based, human
[9] = tested on: CAT; test: Catalase (CAT) activity in LPS-induced SH-SY5Y cells; assay type: cell-based, human; conditions: 10 µM/mL
[10] = tested on: GPx; test: Glutathione peroxidase (GPx) activity in LPS-induced SH-SY5Y cells; assay type: cell-based, human; conditions: 10 µM/mL
[11] = tested on: SOD; test: Superoxide dismutase (SOD) activity in LPS-induced SH-SY5Y cells; assay type: cell-based, human; conditions: 10 µM/mL
[12] = molecular target: T2, MAO-B; test: Enzyme kinetics, Lineweaver-Burk and secondary plots, MAO-B; assay type: biochemical; set-up: purchased Sigma-Aldrich
[13] = molecular target: T2, MAO-B; test: Reversibility study by dialysis, MAO-B
[14] = tested on: NF-kB; test: NF-kB expression in LPS-induced SH-SY5Y cells; conditions: LPS 1 µg/mL 2 h, compound 24 h, SH-SY5Y
[15] = LPS 1 µg/mL 2 h, compound 24 h, SH-SY5Y

SMILES: CCOc1ccc(C2=NNC(c3ccc(Br)cc3)C2)cc1 (centres unmarked) [EH8]
IC50 [1]: 4.31 µM

IC50 [2]: > 40 µM
remaining activity at 10 µM [2]: 83.1 ± 2.34%
IC50 [3]: 420 ± 28 nM
SI (selectivity index) [3]: > 95.24
remaining activity at 10 µM [3]: 22 ± 2.75%
SMILES: O=C1Nc2ccc(Br)cc2/C1=N/NC(=O)c1ccccc1 [IS1]

IC50 [2]: 9.16 ± 0.324 µM
remaining activity at 10 µM [2]: 46.9 ± 2.73%
IC50 [3]: 269 ± 4 nM
SI (selectivity index) [3]: 34.03
remaining activity at 10 µM [3]: 1.18 ± 2.04%
SMILES: O=C1Nc2ccc(Br)cc2/C1=N/NC(=O)c1ccc(Cl)cc1 [IS2]

IC50 [2]: 2.385 ± 0.018 µM
remaining activity at 10 µM [2]: 29.5 ± 0.34%
IC50 [3]: 514 ± 23 nM
SI (selectivity index) [3]: 4.64
remaining activity at 10 µM [3]: 1.04 ± 0.23%
SMILES: O=C1Nc2ccc(Br)cc2/C1=N/NC(=O)c1ccc(Br)cc1 [IS3]

IC50 [2]: 32.85 ± 0.134 µM
remaining activity at 10 µM [2]: 70.1 ± 1.93%
IC50 [3]: 7280 ± 1720 nM
SI (selectivity index) [3]: 4.51
remaining activity at 10 µM [3]: 42.5 ± 8.93%
SMILES: O=C1Nc2ccc(Br)cc2/C1=N/NC(=O)c1ccc(F)cc1 [IS4]

SMILES: O=C1Nc2ccccc2/C1=N/NC(=O)c1ccc(Cl)cc1 [IS6]
CNS/BBB permeability in words [4]: high permeability and CNS bioavailability
Prediction (CNS permeation class) [4]: CNS+ (Pe (10^−6 cm/s) > 4.00: CNS + (high permeation))
Experimental Pe [4]: > 4e-06 cm/s
Papp [4]: 4.86 ± 0.26 ×10⁻⁶ cm/s

Experimental Pe [4]: > 4e-06 cm/s
Papp [4]: 5.02 ± 0.19 ×10⁻⁶ cm/s
Type of MAO-B inhibition ([12]; LB plot): competitive
Ki ([12]; secondary plot of LB slopes vs inhibitor concentration): 44 ± 2 nM
MAO-B relative activity, dialyzed (AD) ([13]; […] IC50, 30 min pre-incubation, dialyzed): 72.89%
MAO-B relative activity, undialyzed (AU) ([13]; […] IC50, 30 min pre-incubation, undialyzed): 28.65%
Reversibility of MAO-B inhibition ([13]; dialysis): reversible-type inhibitors
IC50 [2]: 19.2 ± 5.96 µM
remaining activity at 10 µM [2]: 50.8 ± 7.29%
IC50 [3]: 82 ± 10 nM
SI (selectivity index) [3]: 233.85
remaining activity at 10 µM [3]: 3.2 ± 0.77%
Fold higher MAO-B inhibition than IS5 ([3]; relative to basic compound IS5): 50.4 ×
SMILES: O=C1Nc2ccccc2/C1=N/NC(=O)c1ccc(Br)cc1 [IS7]
CNS/BBB permeability in words [4]: high permeability and CNS bioavailability
Prediction (CNS permeation class) [4]: CNS+ (Pe (10^−6 cm/s) > 4.00: CNS + (high permeation))
Cell viability at 100 μM ([5]; 100 μM): remarkably decreased cell viability
IC50 ([5]; Homo sapiens): 97.2 µM
TNF-alpha level vs LPS-treated group [6, 15]: significantly (p < 0.0001) reduced
TNF-alpha level compared to IS13 and IS15 ([6]; LPS-treated cell lines): significantly decreased
IL-6 level vs LPS-treated group [7, 15]: significantly (p < 0.0001) reduced
IL-6 level compared to IS13 and IS15 ([7]; LPS-treated cell lines): significantly decreased
DCF intensity decrease at 10 µM ([8]; 10 µM/mL (10 µM), vs LPS-induced cells): effective DCF intensity decrease
DCF expression (ROS) vs cells treated with LPS alone ([8]; LPS-induced SH-SY5Y): significantly inhibited (p < 0.0001)
CAT (cellular anti-oxidant enzyme) effect [9]: enhancing the enzyme activity
GPx (cellular anti-oxidant enzyme) effect [10]: enhancing the enzyme activity
SOD (cellular anti-oxidant enzyme) effect [11]: enhancing the enzyme activity
NF-kB level vs LPS-treated group [14]: significantly (p < 0.0001) reduced

IC50 [2]: 35 µM
remaining activity at 10 µM [2]: 69.7 ± 3.22%
IC50 [3]: 25500 ± 2030 nM
remaining activity at 10 µM [3]: 67.4 ± 7.8%
SMILES: O=C1Nc2ccccc2/C1=N/NC(=O)c1ccc(F)cc1 [IS8]
